According to patent publication US5389615A, “Peptides and pharmaceutical composition thereof in the treatment of pain” (British Technology Group Ltd., priority 1988, dated 1995):
“And” between values parts separate entries of the source, which are not always exact repeats. Equal values may be shown once. Read-outs that look alike come from different tables or passages of the source. Non-standard residues stand in square brackets, D forms with d. Residues, ends and D or L forms follow the SMILES beside them.

Key:
[1] = system: hyperalgesia evoked by IL-1β; assay: Modified Randall-Sellito rat paw pressure test, hyperalgesia evoked by IL-1β; format: in vivo; settings: for DELTA REACTION TIME: 3h after IL-1β, control 23.9
Protocol: The hyperalgesic activity of IL-1β was investigated by a modified Randall-Sellito rat paw pressure test (Ferreira et al, Eur. J. Pharacol. 53, 39-48, 1978).
The IL-1β was given either intraplantar (ipl, injection volume=0.1 ml) or intraperitoneally (ip, injection volume=0.3 ml).
The intensity of hyperalgesia was quantified as the variation of the reaction time (Δ reaction time, sec) obtained by subtracting the value measured 1,2,3 or 4h after administration of the hyperalgesic agent from the pre-injection control reaction time (zero time). The experimenter was unaware of the group treatments.
The vertical bars are standard errors of the means (s.e.m's) of values obtained in groups of 5 rats.
Each symbol or histogram represents the mean response of 5 animals per treatment group. Vertical bars are s.e.m's.
The data are means±s.e.m.'s of 5 animals per treatment group.
Each symbol represents the mean response of 5 animals per treatment group. Vertical bars are s.e.m.'s.
Treatments were given ip, lh before Il-1β, also given ip. There were 5 animals per treatment group.
Delta reaction time was measured 3h after Il-1β administration.
The Control was II-1β (0.05U), given ip.

[2] = system: hyperalgesia evoked by acetic acid; assay: Contorsions evoked by acetic acid, Example 19; format: in vivo, mice; settings: for number of contorsions (median), 10 to 20 min after acetic acid: 30 min before acetic acid
Protocol: The number of contorsions (abdominal constrictions or writhes) was counted in the period between 10 and 20 min after ip challenge with acetic acid by an observer unaware of drug treatment.

[3] = system: hyperalgesia evoked by Iloprost; assay: Contortions (writhing) evoked by Iloprost, Examples 9 and 10; format: in vivo, mice; settings: Example 10, Iloprost 10 μg/kg; for total number of contorsions during 20 minutes after ip challenge: control 39.4
Protocol: (§1) Iloprost is a stable analogue of prostacyclin and has the formula: [drawing 4]
(§2) Example 9 was repeated with some groups of mice given indomethacin at various doses rather than the peptide K(D)PT. A control group of mice received neither indomethacin nor K(D)PT. The data are the total number of contorsions measured during 20 minutes after the ip challenge.

[4] = system: hyperalgesia evoked by acetic acid; assay: Contortions (writhing) evoked by acetic acid, Examples 9 and 10; format: in vivo, mice; settings: Example 10; for total number of contorsions during 20 minutes after ip challenge: control 45.3
Protocol: as §1, §2

[5] = mouse, in vivo
[6] = system: human blood mononuclear cells (MNC); assay: PGE2 release by human blood mononuclear cells; format: cell-based
Protocol: The effect of K(D)PT and indomethacin on PGE2 release by human blood mononuclear cells (MNC) was investigated. The MNC were isolated from buffy coat residues by density gradient centrifugation (Ficoll-hypaque, Sigma) and resuspended in RPMI 1640 culture medium (Gibco)+ 2% inactivated foetal calf serum (Imperial Laboratories). […] Values are means of quadruplicates ±s.e.m.'s. PGE2 concentrations were measured by radioimmunoassay (NEN Research Products).

[7] = Gastric lesions in mice
[8] = system: hyperalgesia evoked by DbcAMP; assay: Rat paw pressure test, hyperalgesia evoked by DbcAMP; format: in vivo
[9] = system: hyperalgesia evoked by PGE2; assay: Rat paw pressure test, hyperalgesia evoked by PGE2; format: in vivo; settings: for DELTA REACTION TIME: 3 h after PGE2, control 16.8
[10] = system: hyperalgesia evoked by IL-1β; settings: reference analgesics; cited from earlier work
[11] = in vivo
[12] = indomethacin 100 μg ipl 30 minutes before 0.05U IL-1β ipl or ip
[13] = 20 μg/150 g rat ip 1h before IL-1β (0.05U) ip
[14] = 50 μg/150 g rat ip 1h before IL-1β (0.05U) ip
[15] = 100 μg/150 g rat ip 1h before IL-1β (0.05U) ip
[16] = 200 μg/150 g rat ip 1h before IL-1β (0.05U) ip
[17] = 20 μg/150 g rat ip 1h before PGE2 ipl
[18] = 50 μg/150 g rat ip 1h before PGE2 ipl
[19] = 100 μg/150 g rat ip 1h before PGE2 ipl
[20] = 200 μg/150 g rat ip 1h before PGE2 ipl

COc1ccc2c(c1)c(CC(=O)O)c(C)n2C(=O)c1ccc(Cl)cc1 [Indomethacin, indomethacin]
effect of pretreatment on hyperalgesic response to IL-1β, contralateral paws (CL) [1, 12]: no effect
effect of pretreatment on hyperalgesic response to IL-1β, treated paws (I) [1, 12]: markedly attenuated
% reductions from control values in mice injected with saline ([2]; 2.5 mg/kg ip): -37%
number of contorsions (median), 10 to 20 min after acetic acid ([2]; 2.5 mg/kg ip): 16.5
% reductions from control values in mice injected with saline ([2]; 5 mg/kg ip): -61.5%
number of contorsions (median), 10 to 20 min after acetic acid ([2]; 5 mg/kg ip): 10
% reductions from control values in mice injected with saline ([2]; 10 mg/kg ip): -61.5%
number of contorsions (median), 10 to 20 min after acetic acid ([2]; 10 mg/kg ip): 10
(-%) reduction of contorsions vs control ([3]; 1.25 mg/kg): 7.6%
total number of contorsions during 20 minutes after ip challenge ([3]; 1.25 mg/kg): 36.4
(-%) reduction of contorsions vs control ([3]; 5.0 mg/kg): 26.0%
total number of contorsions during 20 minutes after ip challenge ([3]; 5.0 mg/kg): 29.2
(-%) reduction of contorsions vs control ([3]; 20.0 mg/kg): 46.0%
total number of contorsions during 20 minutes after ip challenge ([3]; 20.0 mg/kg): 21.3
total number of contorsions during 20 minutes after ip challenge ([4]; acetic acid .6% 0.1 ml/10 g, 1.25 mg/kg): 34.6
(-%) reduction of contorsions vs control ([4]; acetic acid .6%, 1.25 mg/kg): 23.6%
(-%) reduction of contorsions vs control ([4]; acetic acid .6%, 5.0 mg/kg): 46.3%
total number of contorsions during 20 minutes after ip challenge ([4]; acetic acid .6%, 5.0 mg/kg): 24.3
(-%) reduction of contorsions vs control ([4]; acetic acid .6%, 20.0 mg/kg): 57.4%
total number of contorsions during 20 minutes after ip challenge ([4]; acetic acid .6%, 20.0 mg/kg): 19.3
gastric erosions, % of the mice [5]: 100%
gastric lesions [5]: caused gastric lesions
effect on production of PGE2 / prostaglandin [6]: abolished PGE2 production
PGE2 release by MNC incubated for 4h with IL-1α (50 U/ml) ([6]; 2 μg/ml, 5.9 micromoles/L, added 45 min before, ethanol control 2.0): 0.03 ± 0.0007 ng/mL
PGE2 release by MNC incubated for 4h with IL-1β (50 U/ml) ([6]; 2 μg/ml, 5.9 micromoles/L, added 45 min before, ethanol control 2.1): 0.03 ± 0.0005 ng/mL
PGE2 release by MNC incubated for 4h with E. coli endotoxin (25 pg/ml) ([6]; 2 μg/ml, 5.9 micromoles/L, added 45 min before, ethanol control 3.1): 0.03 ± 0.0004 ng/mL
PGE2 release by MNC (5 × 10^6 cells/ml) incubated for 4h with Saline control (0.9% w/v) ([6]; 2 μg/ml, 5.9 micromoles/L, ethanol control 1.3): 0.03 ± 0.0002 ng/ml

NCCCC[C@H](N)C(=O)N1CCC[C@@H]1C(=O)O [K(D)P, Lys-D-Pro] (H-Lys-[dP]-OH)
% reductions from control values in mice injected with saline ([2]; 5 mg/kg ip): -58%
number of contorsions (median), 10 to 20 min after acetic acid ([2]; 5 mg/kg ip): 11
% reductions from control values in mice injected with saline ([2]; 5 mg/kg po): -10%
number of contorsions (median), 10 to 20 min after acetic acid ([2]; 5 mg/kg po): 19
% reductions from control values in mice injected with saline ([2]; 10 mg/kg po): -36%
number of contorsions (median), 10 to 20 min after acetic acid ([2]; 10 mg/kg po): 13.5
% reductions from control values in mice injected with saline ([2]; 20 mg/kg ip): -77%
number of contorsions (median), 10 to 20 min after acetic acid ([2]; 20 mg/kg ip): 6
% reductions from control values in mice injected with saline ([2]; 20 mg/kg po): -38%
number of contorsions (median), 10 to 20 min after acetic acid ([2]; 20 mg/kg po): 14
analgesic activity against hyperalgesia evoked by acetic acid, given ip [2]: effective analgesic
analgesic activity against hyperalgesia evoked by acetic acid, given orally ([2]; po): effective analgesic

C[C@@H](O)[C@H](NC(=O)[C@H]1CCCN1C(=O)[C@@H](N)CCCCN)C(=O)O [K(D)PT, Lys-D-Pro-Thr] (H-Lys-[dP]-Thr-OH)
gastric lesions ([7]; 32 mg/kg): No lesions were observed
gastric lesions ([7]; mice of Example 10): did not

CC(C)[C@H](NC(=O)[C@H]1CCCN1C(=O)[C@@H](N)CCCCN)C(=O)O [K(D)PV, Lys-D-Pro-Val] (H-Lys-[dP]-Val-OH)
% change of delta reaction time vs control (=100%) ([8]; 200 μg/150 g rat ip 1 h before DbcAMP (100 μg/paw) ipl): -7.0%
DELTA REACTION TIME ([8]; 200 μg/150 g rat ip 1 h before DbcAMP (100 μg/paw) ipl, 3 h after DbcAMP, control 17.2): 16.0 ± 0.2 s
% change of delta reaction time vs control (=100%) [1, 13]: -23.9%
DELTA REACTION TIME [1, 13]: 18.2 ± 0.4 s
% change of delta reaction time vs control (=100%) [1, 14]: -64.4%
DELTA REACTION TIME [1, 14]: 8.5 ± 0.6 s
% change of delta reaction time vs control (=100%) [1, 15]: 84.1%
DELTA REACTION TIME [1, 15]: 3.8 ± 0.7 s
% change of delta reaction time vs control (=100%) [1, 16]: -88.3%
DELTA REACTION TIME [1, 16]: 2.8 ± 0.6 s
ED50 antagonising IL-1β evoked hyperalgesia ([1]; rats): 40 μg/150 g rat
antagonism of hyperalgesia evoked by IL-1β ([1]; rats, peptide given before IL-1β): more potent antagonists of I1-1β-evoked hyperalgesia than Lys-D-Pro-Thr
% reductions from control values in mice injected with saline ([2]; 2 mg/kg ip): -33%
number of contorsions (median), 10 to 20 min after acetic acid ([2]; 2 mg/kg ip): 19
% reductions from control values in mice injected with saline ([2]; 10 mg/kg ip): -38%
number of contorsions (median), 10 to 20 min after acetic acid ([2]; 10 mg/kg ip): 17
% reductions from control values in mice injected with saline ([2]; 30 mg/kg ip): -45%
number of contorsions (median), 10 to 20 min after acetic acid ([2]; 30 mg/kg ip): 15.5
% reductions from control values in mice injected with saline ([2]; 100 mg/kg ip): -74%
number of contorsions (median), 10 to 20 min after acetic acid ([2]; 100 mg/kg ip): 7
% reductions from control values in mice injected with saline ([2]; 100 mg/kg po): -52%
number of contorsions (median), 10 to 20 min after acetic acid ([2]; 100 mg/kg po): 13
analgesic activity against hyperalgesia evoked by acetic acid, given ip [2]: dose-related analgesic activity
% change of delta reaction time vs control (=100%) [9, 17]: -16.7%
DELTA REACTION TIME [9, 17]: 14.0 ± 0.4 s
% change of delta reaction time vs control (=100%) [9, 18]: -20.2%
DELTA REACTION TIME [9, 18]: 13.4 ± 0.4 s
% change of delta reaction time vs control (=100%) [9, 19]: -46±4%
DELTA REACTION TIME [9, 19]: 9.0 ± 0.2 s
% change of delta reaction time vs control (=100%) [9, 20]: -64.3%
DELTA REACTION TIME [9, 20]: 6.0 ± 0.3 s
ED50 antagonising PGE2 evoked hyperalgesia ([9]; rats): ~140 μg/150 g rat
antagonism of hyperalgesia evoked by PGE2 ([9]; rats): antagonize hyperalgesia evoked by PGE2

CN1CC[C@]23c4c5ccc(O)c4O[C@H]2[C@@H](O)C=C[C@H]3[C@H]1C5 [Morphine, morphine]
antagonism of hyperalgesia evoked by DbcAMP ([8]; rat, in vivo): effective antagonist
antagonism of on-going hyperalgesia [10]: able to antagonize on-going hyperalgesia
reaction time difference, hot plate [11]: 3.52 s and 5.55 s

Cc1c(N(C)CS(=O)(=O)O)c(=O)n(-c2ccccc2)n1C [dipyrone]
antagonism of on-going hyperalgesia [10]: able to antagonize on-going hyperalgesia
